Reference: patent US9751854B2 (Millennium Pharmaceuticals, Inc., priority 2014, dated 2017)
pIC50: −log10 of the molar value.

Target: human VPS34 (Homo sapiens (Human), UniProt Q8NEB9)
Assay: Human VPS34 enzyme assay (Adapta TR-FRET ADP detection)
Type: biochemical
Set-up: Percent Inhibition: dose or concentration left out as unconfirmed
Details: for pIC50: IC50 range class

Sequence of human VPS34 (Q8NEB9 whole entry): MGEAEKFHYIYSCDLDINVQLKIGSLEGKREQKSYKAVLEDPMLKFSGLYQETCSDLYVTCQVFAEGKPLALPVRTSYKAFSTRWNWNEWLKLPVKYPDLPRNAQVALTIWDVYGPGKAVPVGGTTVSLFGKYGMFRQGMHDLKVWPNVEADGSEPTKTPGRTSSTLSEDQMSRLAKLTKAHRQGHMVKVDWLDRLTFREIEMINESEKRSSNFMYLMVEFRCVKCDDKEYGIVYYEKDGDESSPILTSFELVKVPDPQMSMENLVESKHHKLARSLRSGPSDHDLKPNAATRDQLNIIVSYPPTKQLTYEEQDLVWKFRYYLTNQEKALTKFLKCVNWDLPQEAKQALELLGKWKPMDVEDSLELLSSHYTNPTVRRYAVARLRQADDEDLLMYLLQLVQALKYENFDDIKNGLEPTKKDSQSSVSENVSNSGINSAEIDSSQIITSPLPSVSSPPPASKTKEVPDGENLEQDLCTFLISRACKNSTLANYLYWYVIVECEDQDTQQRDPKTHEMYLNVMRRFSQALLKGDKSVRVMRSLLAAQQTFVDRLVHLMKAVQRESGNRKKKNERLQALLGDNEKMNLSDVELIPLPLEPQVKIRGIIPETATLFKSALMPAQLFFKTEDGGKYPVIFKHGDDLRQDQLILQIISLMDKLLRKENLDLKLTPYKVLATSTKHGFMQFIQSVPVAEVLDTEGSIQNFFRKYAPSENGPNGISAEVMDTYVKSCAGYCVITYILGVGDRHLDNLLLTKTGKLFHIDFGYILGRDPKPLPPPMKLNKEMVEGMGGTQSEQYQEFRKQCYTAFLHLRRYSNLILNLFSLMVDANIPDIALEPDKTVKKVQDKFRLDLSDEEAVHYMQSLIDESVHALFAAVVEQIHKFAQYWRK

pIC50 | Percent Inhibition [%] | SMILES
> 8.00 | – | CC(=O)Nc1cc(-c2cnc(N)c(S(=O)(=O)N3CCCC3)c2)ccn1 [Compound I-87, N-[6-amino-5-(pyrrolidin-1-ylsulfonyl)-3,4′-bipyridin-2′-yl]acetamide]
7.30 to 8.00 | – | CC(=O)Nc1cc(-c2cnc(C)c(N3CCCS3(=O)=O)c2)ccn1 [Compound I-88, N-[5-(1,1-dioxidoisothiazolidin-2-yl)-6-methyl-3,4′-bipyridin-2′-yl]acetamide]
7.30 to 8.00 | – | CNS(=O)(=O)c1cc(-c2ccnc(NC(C)=O)c2)cnc1N [Compound I-89, N-[6-amino-5-(methylsulfamoyl)-3,4′-bipyridin-2′-yl]acetamide]
> 8.00 | – | CC(=O)Nc1cc(-c2cnc(C)c(NS(=O)(=O)c3ccc(C(F)(F)F)cc3)c2)ccn1 [Compound I-90, N-[6-methyl-5-({[4-trifluoromethyl)phenyl]sulfonyl}amino-3,4′-bipyridin-2′-yl]acetamide]
> 8.00 | – | CC(=O)Nc1cc(-c2cnc(N)c(C(=O)Nc3cccnc3)c2)ccn1 [Compound I-91, 2′-acetamido-6-amino-N-(pyridin-3-yl)-3,4′-bipyridine-5-carboxamide]
– | >99 | CC(=O)Nc1cc(-c2cnc(C)c(NS(=O)(=O)c3nccn3C)c2)ccn1 [Compound I-92]
7.30 to 8.00 | – | CC(=O)Nc1cc(-c2cnc3ccn(CC4CC4)c3c2)ccn1 [Compound I-93, N-{4-[1-(cyclopropylmethyl)-1H-pyrrolo[3,2-b]pyridin-6-yl]pyridin-2-yl}acetamide]
7.30 to 8.00 | – | CC(=O)Nc1cc(-c2cnc(N)c(S(C)(=O)=O)c2)ccn1 [Compound I-95, N-[6-amino-5-(methylsulfonyl)-3,4′-bipyridin-2′-yl]acetamide]
7.30 to 8.00 | – | CC(=O)Nc1cc(-c2cnc(C)c(N(C)S(C)(=O)=O)c2)ccn1 [Compound I-96, N-{6-methyl-5-[methyl(methylsulfonyl)amino]-3,4′-bipyridin-2′-yl}acetamide]
> 8.00 | – | CC(=O)Nc1cc(-c2cnc(N)c(S(=O)(=O)Nc3cccc(Cl)c3)c2)ccn1 [Compound I-97, N-[6-amino-5-[(3-chlorophenyl)sulamoyl]-3,4′-bipyridin-2′-yl]acetamide]
7.30 to 8.00 | – | CC(=O)Nc1cc(-c2cnc(N)c(S(=O)(=O)Nc3ccc4ccccc4c3)c2)ccn1 [Compound I-98, N-[6-amino-5-(2-naphthylsulfamoyl)-3,4′-bipyridin-2′-yl]acetamide]
7.30 to 8.00 | – | CC(=O)Nc1cc(-c2cnc(N)c(S(=O)(=O)Cc3ccc(Cl)cc3)c2)ccn1 [Compound I-99, N-[6-amino-5-[(4-chlorobenzyl)sulfonyl]-3,4′-bipyridin-2′-yl]acetamide]
> 8.00 | – | CNc1ncc(-c2ccnc(NC(C)=O)c2)cc1S(=O)(=O)Nc1ccccc1 [Compound I-100, N-[6-(methylamino)-5-(phenylsulfamoyl)-3,4′-bipyridin-2′-yl]acetamide]
> 8.00 | – | CC(=O)Nc1cc(-c2cnc(N)c(S(=O)(=O)NC3CCCCC3)c2)ccn1 [Compound I-101, N-[6-amino-5-(cyclohexylsulfamoyl)-3,4′-bipyridin-2′-yl]acetamide]
7.30 to 8.00 | – | CC(=O)Nc1cc(-c2cncc(NS(=O)(=O)c3ccc(F)cc3F)c2C)ccn1 [Compound I-102, N-(5-{[(2,4-difluorophenyl)sulfonyl]amino]-4-methyl-3,4′-bipyridin-2′-yl)acetamide]
> 8.00 | – | CC(=O)Nc1cc(-c2cnc3[nH]cc(S(=O)(=O)N4CCN(C)CC4)c3c2)ccn1 [Compound I-103, N-(4-{3-[(4-methylpiperazin-1-yl)sulfonyl]-1H-pyrrolo[2,3-b]pyridin-5-yl]pyridin-2-yl)acetamide]
> 8.00 | – | COc1ncc(-c2ccnc(NC(C)=O)c2)cc1NS(=O)(=O)c1ccc(F)cc1F [Compound I-104, N-(5-{[(2,4-difluorophenyl)sulfonyl]amino}-6-methoxy-3,4′-bipyridin-2′-yl)acetamide]
< 7.00 | – | CC(=O)Nc1cc(-c2cnc3cn(S(=O)(=O)C4CC4)nc3c2)ccn1 [Compound I-105, N-{4-[2-(cyclopropylsulfonyl)-2H-pyrazolo[4,3-b]pyridin-6-yl]pyridin-2-yl}acetamide]
< 7.00 | – | CC(=O)Nc1cc(-c2cncc(NC(=O)Cc3ccccc3)c2)ccn1 [Compound I-106, N-(2′-acetamido-3,4′-bipyridin-5-yl)-2-phenylacetamide]
> 8.00 | – | COc1ncc(-c2ccnc(NC(C)=O)c2)cc1S(=O)(=O)Nc1ccc(F)cc1F [Compound I-107, N-{5-[(2,4-difluorophenyl)sulfamoyl]-6-methoxy-3,4′-bipyridin-2′-yl]acetamide]
7.30 to 8.00 | – | CC(=O)Nc1cc(-c2cnc(N)c(S(=O)(=O)NCC3CC3)c2)ccn1 [Compound I-108, N-(6-amino-5-[(cyclopropylmethyl)sulfamoyl]-3,4′-bipyridin-2′-yl]acetamide]
> 8.00 | – | CC(=O)Nc1cc(-c2cnc(C)c(NS(=O)(=O)c3ccccc3Cl)c2)ccn1 [Compound I-109, N-(5-{[(2-chlorophenyl)sulfonyl]amino]-6-methyl-3,4′-bipyridin-2′-yl)acetamide]

pIC50 | Percent Inhibition [%] | SMILES
> 8.00 | – | CC(=O)Nc1cc(-c2cnc(N)c(S(=O)(=O)N(C)CC3CC3)c2)ccn1 [Compound I-110, N-{6-amino-5-[(cyclopropylmethyl)(methyl)sulfamoyl]-3,4′-bipyridin-2′-yl}acetamide]
> 8.00 | – | CC(=O)Nc1cc(-c2cnc(C)c(NS(=O)(=O)c3cc(Cl)ccc3Cl)c2)ccn1 [Compound I-111, N-(5-{[(2,5-dichlorophenyl)sulfonyl]amino}-6-methyl-3,4′-bipyridin-2′-yl)acetamide]
7.00 to 7.30 | – | CC(=O)Nc1cc(-c2cnc(N(C)C)c(C(=O)Nc3ccc(F)cc3F)c2)ccn1 [Compound I-112, 2′-acetamido-N-(2,4-difluorophenyl)-6-(dimethylamino)-3,4′-bipyridine-5-carboxamide]
> 8.00 | – | CC(=O)Nc1cc(-c2cnc(C)c(NS(=O)(=O)c3ccc(OC(F)(F)F)cc3Cl)c2)ccn1 [Compound I-113, N-[5-({[2-chloro-4-(trifluoromethoxy)phenyl]sulfonyl}amino)-6-methyl-3,4′-bipyridin-2′-yl]acetamide]
7.30 to 8.00 | – | CC(=O)Nc1cc(-c2cnc(C)c(NS(=O)(=O)C3CC3)c2)ccn1 [Compound I-114, N-{5-[(cyclopropylsulfonyl)amino]-6-methyl-3,4′-bipyridin-2′-yl]acetamide]
< 7.00 | – | CC(=O)Nc1cc(-c2cnc(C)c(NC(=O)c3ccc(F)cc3F)c2)ccn1 [Compound I-115, N-(2′-acetamido-6-methyl-3,4′-bipyridin-5-yl)-2,4-difluorobenzamide]
< 7.00 | – | CC(=O)Nc1cc(-c2cnc3cn[nH]c3c2)ccn1 [Compound I-116, N-[4-(1H-pyrazolo[4,3-b]pyridin-6-yl)pyridin-2-yl]acetamide]
7.30 to 8.00 | – | O=C(Nc1cc(-c2cnc3[nH]ncc3c2)ccn1)C1CC1 [Compound I-117, N-[4-(1H-pyrazolo[3,4-b]pyridin-5-yl)pyridin-2-yl]cyclopropanecarboxamide]
7.30 to 8.00 | – | CC(=O)Nc1cc(-c2cncc(S(=O)(=O)N3CCC(F)(F)C3)c2)ccn1 [Compound I-118, N-{5-[(3,3-difluoropyrrolidin-1-yl)sulfonyl]-3,4′-bipyridin-2′-yl}acetamide]
> 8.00 | – | CC(=O)Nc1cc(-c2cnc(N)c(S(=O)(=O)N(C)C)c2)ccn1 [Compound I-119, N-[6-amino-5-(dimethylsulfamoyl)-3,4′-bipyridin-2′-yl]acetamide]
> 8.00 | – | CCN(CC)S(=O)(=O)c1cncc(-c2ccnc(NC(C)=O)c2)c1 [Compound I-120, N-[5-(diethylsulfamoyl)-3,4′-bipyridin-2′-yl]acetamide]
7.00 to 7.30 | – | CC(=O)Nc1cc(-c2cnc(N)c(C(=O)Nc3cc(C)cnn3)c2)ccn1 [Compound I-121, 2′-acetamido-6-amino-N-(5-methylpyridazin-3-yl)-3,4′-bipyridine-5-carboxamide]
7.00 to 7.30 | – | CC(=O)Nc1cc(-c2cnc(N)c(S(=O)(=O)O)c2)ccn1 [Compound I-122, 2′-acetamido-6-amino-3,4′-bipyridine-5-sulfonic acid]
> 8.00 | – | COc1cccc(S(=O)(=O)Nc2cc(-c3ccnc(NC(C)=O)c3)cnc2C)c1 [Compound I-123, N-(5-{[(3-methoxyphenyl)sulfonyl]amino}-6-methyl-3,4′-bipyridin-2′-yl}acetamide]
> 8.00 | – | CCN(CC)S(=O)(=O)c1cc(-c2ccnc(NC(C)=O)c2)cnc1N [Compound I-124, N-[6-amino-5-(diethylsulfamoyl)-3,4′-bipyridin-2′-yl]acetamide]
> 8.00 | – | CC(=O)Nc1cc(-c2cnc(N)c(C(=O)N3Cc4ccccc4C3)c2)ccn1 [Compound I-125]
7.00 to 7.30 | – | CC(=O)Nc1cc(-c2cnc(N)c(S(=O)(=O)CCc3ccccc3)c2)ccn1 [Compound I-126, N-[6-amino-5-[(2-phenylethyl)sulfonyl]-3,4′-bipyridin-2′-yl]acetamide]
7.00 to 7.30 | – | COc1ncc(-c2ccnc(NC(C)=O)c2)cc1C(=O)N(C)C [Compound I-127, 2′-acetamido-6-methoxy-N,N-dimethyl-3,4′-bipyridine-5-carboxamide]
< 7.00 | 100 | CC(=O)Nc1cc(-c2cc(N(C)S(C)(=O)=O)c(C)[n+]([O-])c2)ccn1 [Compound I-129, N-(4-{6-methyl-5-[methyl(methylsulfonyl)amino]-1-oxidopyridin-3-yl}pyridin-2-yl)acetamide]
7.00 to 7.30 | – | CC(=O)Nc1cc(-c2cnc(C)c(NS(=O)(=O)c3ccc(C)cc3F)c2)c(C)cn1 [Compound I-130, N-(5-{[(2-fluoro-4-methylphenyl)sulfonyl]amino}-5′,6-dimethyl-3,4′-bipyridin-2′-yl)acetamide]
> 8.00 | – | CC(=O)Nc1cc(-c2cnc(C)c(NS(=O)(=O)c3ccc(C(C)(C)C)cc3)c2)ccn1 [Compound I-131, N-(5-{[(4-tert-butylphenyl)sulfonyl]amino}-6-methyl-3,4′-bipyridin-2′-yl)acetamide]
> 8.00 | – | CNc1ncc(-c2ccnc(NC(C)=O)c2)cc1N1CCCS1(=O)=O [Compound I-132, N-[5-(1,1-dioxidoisothiazolidin-2-yl)-6-(methylamino)-3,4′-bipyridin-2′-yl]acetamide]
